Reference: patent US7192746B2, “α-Isomaltosyltransferase, process for producing the same and use thereof” (Kabushiki Kaisha Hayashibara Seibutsu Kagaku Kenkyujo, priority 2000, dated 2007)

Tests used:
mice = assay: Acute toxicity test; format: in vivo, mouse; conditions: oral
Excerpt: Based on this, the LD50 of cyclotetrasaccharide was at least 50 g/kg mouse body weight.

amylopsin = molecular target: T1, amylopsin (Homo sapiens, UniProt P04746)
T1 sequence (P04746 16-511): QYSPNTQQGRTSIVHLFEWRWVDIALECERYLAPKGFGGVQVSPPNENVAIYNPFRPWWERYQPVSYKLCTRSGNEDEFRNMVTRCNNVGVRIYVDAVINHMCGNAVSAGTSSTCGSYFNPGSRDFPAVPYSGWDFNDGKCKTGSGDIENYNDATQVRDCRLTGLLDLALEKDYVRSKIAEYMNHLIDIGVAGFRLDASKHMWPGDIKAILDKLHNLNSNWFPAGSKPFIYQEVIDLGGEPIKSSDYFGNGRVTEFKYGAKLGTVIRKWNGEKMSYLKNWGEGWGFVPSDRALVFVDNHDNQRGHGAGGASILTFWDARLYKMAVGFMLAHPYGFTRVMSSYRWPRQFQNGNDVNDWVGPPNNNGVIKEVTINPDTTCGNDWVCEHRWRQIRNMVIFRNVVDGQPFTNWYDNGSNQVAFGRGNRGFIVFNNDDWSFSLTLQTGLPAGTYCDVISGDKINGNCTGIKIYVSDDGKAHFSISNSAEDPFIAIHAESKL

[1] = Amino carbonyl reaction with polypeptone; format: physicochemical; conditions: 10% (w/v) with 5% (w/v) polypeptone, 120° C., minus control
Method: Four milliliter aliquots of the resulting solution were placed in glass test tubes, sealed, and heated at 120° C. for 30 to 90 min. After allowing to stand for cooling at ambient temperature, each of the resulting solution was measured for coloration degree to examine their amino carbonyl reactivity. In parallel, as a control, a solution with only polypeptone was provided and similarly treated as above. The coloration degree was evaluated based on the level of the absorbance, measured in a cell with 1-cm light pass at a wavelength of 480 nm, minus that of the control.

[2] = Reducing power on the Somogyi-Nelson's method; format: physicochemical
[3] = test system: Bacteroides vulgatus JCM 5826 strain; assay: Assimilation test; format: cell-based; conditions: PYF medium with 0.5% saccharide, 37° C., four days, anaerobic
[4] = test system: Lactobacillus acidophilus JCM 1132 strain; assay: Assimilation test; format: cell-based; conditions: PYF medium with 0.5% saccharide, 37° C., four days, anaerobic
[5] = test system: Escherichia coli IFO 3301 strain; assay: Assimilation test; format: cell-based; conditions: PYF medium with 0.5% saccharide, 37° C., four days, anaerobic
Inclusion action = format: physicochemical
Method: To 100 g of the aqueous solution was added 2 g of methanol, 3 g of ethanol, or 4.6 g of acetic acid to be included by the cyclotetrasaccharide. Thereafter, each of the resulting solutions was filtered to remove non-inclusion products, and the filtrate was lyophilized. As a control, similar inclusion products were prepared by using “ISOELITE™ P”, a branched cyclodextrin commercialized by Maruha K.K., Tokyo, Japan, known to have inclusion ability.
To measure the amount of the inclusion products in the resulting lyophilized powders, one gram of each powder was dissolved in five milliliters water and extracted after admixing with five milliliters of diethylether. The extraction was repeated, and the resulting extracts were pooled and quantified on gas chromatography.

pH stability = format: physicochemical; conditions: 4% (w/v), 100° C., 24 hours; for Purity: HPLC
Method: Eight milliliters of each solution was placed in a glass test tube, followed by sealing the test tube and heating the solution at 100° C. for 24 hours. After cooling under atmospheric conditions, each solution was measured for coloration degree and determined for purity on HPLC. The coloration degree was evaluated based on the absorbance in a cell with a 1-cm light pass at a wavelength of 480 nm.

salivary amylase = molecular target: T2, salivary amylase (Homo sapiens, UniProt P0DUB6); assay: Digestion test in vitro
T2 sequence (P0DUB6 16-511): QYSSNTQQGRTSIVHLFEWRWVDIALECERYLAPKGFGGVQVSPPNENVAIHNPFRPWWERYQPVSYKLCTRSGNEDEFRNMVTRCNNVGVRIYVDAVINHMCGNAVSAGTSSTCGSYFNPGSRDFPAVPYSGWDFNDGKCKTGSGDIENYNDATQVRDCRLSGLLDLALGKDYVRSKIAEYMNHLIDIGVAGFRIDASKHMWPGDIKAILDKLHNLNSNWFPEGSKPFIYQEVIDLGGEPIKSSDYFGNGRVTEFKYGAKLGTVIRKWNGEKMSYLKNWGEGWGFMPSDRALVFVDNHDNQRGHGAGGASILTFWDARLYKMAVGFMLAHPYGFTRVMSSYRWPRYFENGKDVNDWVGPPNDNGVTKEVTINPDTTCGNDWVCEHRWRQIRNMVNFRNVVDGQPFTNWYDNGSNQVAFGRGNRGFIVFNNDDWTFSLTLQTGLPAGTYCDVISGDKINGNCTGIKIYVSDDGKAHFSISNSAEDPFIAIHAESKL

Digestion test in vitro = conditions: Synthetic gastric juice

## OCC1OC2OCC3O[C@H](O[C@H]4C(O)C(CO)OC(OCC5O[C@H](O[C@@H](C1O)C2O)C(O)C(O)[C@@H]5O)C4O)C(O)C(O)[C@@H]3O (stereo partly drawn) [Cyclotetrasaccharide, cyclo{→6)-α-D-glucopyranosyl-(1→3)-α-D-glucopyranosyl-(1→6)-α-D-glucopyranosyl-(1→3)-α-D-glucopyranosyl-(1→}]
mice
  Death at highest possible dose: did not induce death of mouse
  LD50: at least 50 g/kg mouse body weight
amylopsin
  Decomposition percentage by digestive enzyme: 0.0%
[1]; heating time 0 min
  Coloration degree (A480 nm): 0.00
[1]; heating time 30 min
  Coloration degree (A480 nm): 0.00
[1]; heating time 60 min
  Coloration degree (A480 nm): 0.00
[1]; heating time 90 min
  Coloration degree (A480 nm): 0.00
[2]
  Reducing power: below a detectable level
[3]
  Assimilability: − (negative (−) when the post culture had a pH of 6.0 or higher)
[4]
  Assimilability: − (negative (−) when the post culture had a pH of 6.0 or higher)
[5]
  Assimilability: − (negative (−) when the post culture had a pH of 6.0 or higher)
Inclusion action; higher than ISOELITE P
  Inclusion ability relative to the branched cyclodextrin, by weight: about 2 folds
Inclusion action; inclusion product Acetic acid
  Inclusion amount: 67.74 mg/g lyophilized powder
Inclusion action; inclusion product Ethanol
  Inclusion amount: 17.26 mg/g lyophilized powder
Inclusion action; inclusion product Methanol
  Inclusion amount: 6.71 mg/g lyophilized powder
pH stability; pH 2.0 (Acetate buffer)
  Coloration degree (A480 nm): 0.00
  Purity: 93%
pH stability; pH 3.0 (Acetate buffer)
  Coloration degree (A480 nm): 0.00
  Purity: 100%
pH stability; pH 4.0 (Acetate buffer)
  Coloration degree (A480 nm): 0.00
  Purity: 100%
pH stability; pH 5.0 (Acetate buffer)
  Coloration degree (A480 nm): 0.00
  Purity: 100%
pH stability; pH 6.0 (Tris-HCl buffer)
  Coloration degree (A480 nm): 0.00
  Purity: 100%
pH stability; pH 7.0 (Tris-HCl buffer)
  Coloration degree (A480 nm): 0.00
  Purity: 100%
pH stability; pH 8.0 (Tris-HCl buffer)
  Coloration degree (A480 nm): 0.00
  Purity: 100%
pH stability; pH 9.0 (Ammonium buffer)
  Coloration degree (A480 nm): 0.00
  Purity: 100%
pH stability; pH 10.0 (Ammonium buffer)
  Coloration degree (A480 nm): 0.00
  Purity: 100%

## OC[C@@H](O)[C@@H](O[C@H]1O[C@H](CO)[C@@H](O)[C@H](O)[C@H]1O)[C@H](O)[C@@H](O)CO [Maltitol, maltitol]
Salivary amylase
  Decomposition percentage by digestive enzyme: 0.0%
Digestion test in vitro
  Decomposition percentage by digestive enzyme: 0.0%
